Experimental data: ChEMBL document CHEMBL4396887, “Five-Membered N-Heterocyclic Scaffolds as Novel Amino Bioisosteres at γ-Aminobutyric Acid (GABA) Type A Receptors and GABA Transporters” (J Med Chem, 2019)

Columns and labels:
[1] = biological target: Gamma-aminobutyric acid receptor subunit alpha-5/beta-2/gamma-2 (Homo sapiens) (UniProt P47870+P18507+P31644); assay: Agonist activity at recombinant human GABA-A alpha5beta2gamma2S receptor transiently expressed in human tsA201 cells assessed as GABA-induced maximum response incubated for 30 mins and measured up to 90 secs by FMP dye based FLIPR membrane potential blue assay relative to GABA; type: cell-based
[2] = biological target: T1, Gamma-aminobutyric acid receptor subunit rho-1 (Homo sapiens, UniProt P24046); assay: Agonist activity at recombinant human GABA-A rho-1 receptor transiently expressed in human tsA201 cells assessed as GABA-induced maximum response incubated for 30 mins and measured up to 90 secs by FMP dye based FLIPR membrane potential blue assay relative to GABA; type: cell-based
T1 sequence (P24046 whole entry): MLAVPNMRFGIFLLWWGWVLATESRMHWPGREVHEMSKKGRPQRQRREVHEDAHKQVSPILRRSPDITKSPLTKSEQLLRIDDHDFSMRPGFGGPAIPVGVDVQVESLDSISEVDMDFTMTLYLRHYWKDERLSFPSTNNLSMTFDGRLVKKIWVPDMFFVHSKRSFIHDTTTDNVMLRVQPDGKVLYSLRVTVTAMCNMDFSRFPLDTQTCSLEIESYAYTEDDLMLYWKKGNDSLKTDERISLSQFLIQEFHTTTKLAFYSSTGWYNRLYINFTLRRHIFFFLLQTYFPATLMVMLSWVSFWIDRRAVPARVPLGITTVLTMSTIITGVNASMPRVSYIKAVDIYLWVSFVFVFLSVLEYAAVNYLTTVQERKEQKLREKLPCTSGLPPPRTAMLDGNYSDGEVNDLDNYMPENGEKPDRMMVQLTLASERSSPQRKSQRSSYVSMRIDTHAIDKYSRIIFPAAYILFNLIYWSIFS

[3] = biological target: GABA-A receptor; alpha-1/beta-2/gamma-2 (Homo sapiens) (UniProt P14867+P47870+P18507); assay: Agonist activity at recombinant human GABA-A alpha1beta2gamma2S receptor transiently expressed in human tsA201 cells assessed as GABA-induced maximum response incubated for 30 mins and measured up to 90 secs by FMP dye based FLIPR membrane potential blue assay relative to GABA; type: cell-based
[4] = biological target: T2, Sodium- and chloride-dependent GABA transporter 2 (Homo sapiens) (UniProt Q9NSD5); assay: Inhibition of human GAT2 expressed in Flp-In CHO cells assessed as reduction in [3H]GABA uptake at 100 uM incubated for 3 mins by liquid scintillation counting method relative to control; type: cell-based
T2 sequence (whole entry): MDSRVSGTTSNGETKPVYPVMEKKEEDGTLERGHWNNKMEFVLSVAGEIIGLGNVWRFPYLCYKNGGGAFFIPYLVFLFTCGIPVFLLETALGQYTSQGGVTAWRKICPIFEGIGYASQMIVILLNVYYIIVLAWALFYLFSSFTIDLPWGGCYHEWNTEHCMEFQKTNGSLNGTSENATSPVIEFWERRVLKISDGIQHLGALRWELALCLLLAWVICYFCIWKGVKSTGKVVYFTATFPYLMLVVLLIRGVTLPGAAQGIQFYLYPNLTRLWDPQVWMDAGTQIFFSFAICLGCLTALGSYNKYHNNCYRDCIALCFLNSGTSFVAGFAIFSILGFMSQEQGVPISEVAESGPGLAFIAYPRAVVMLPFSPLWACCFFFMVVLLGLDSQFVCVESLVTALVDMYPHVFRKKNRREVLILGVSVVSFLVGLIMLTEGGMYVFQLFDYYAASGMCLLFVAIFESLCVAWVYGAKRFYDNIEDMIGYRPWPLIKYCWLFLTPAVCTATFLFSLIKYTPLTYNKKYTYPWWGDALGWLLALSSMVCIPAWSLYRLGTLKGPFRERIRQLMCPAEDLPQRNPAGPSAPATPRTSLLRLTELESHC

[5] = biological target: Gamma-aminobutyric acid receptor subunit alpha-4/beta-2/gamma-2 (Homo sapiens, UniProt P47870+P18507+P48169); assay: Agonist activity at recombinant human GABA-A alpha4beta2gamma2S receptor transiently expressed in human tsA201 cells assessed as GABA-induced maximum response incubated for 30 mins and measured up to 90 secs by FMP dye based FLIPR membrane potential blue assay relative to GABA; type: cell-based
[6] = biological target: T3, Sodium- and chloride-dependent betaine transporter (Homo sapiens) (UniProt P48065); assay: Inhibition of human BGT1 expressed in Flp-In CHO cells assessed as reduction in [3H]GABA uptake at 100 uM incubated for 3 mins by liquid scintillation counting method relative to control; type: cell-based
T3 sequence (whole entry): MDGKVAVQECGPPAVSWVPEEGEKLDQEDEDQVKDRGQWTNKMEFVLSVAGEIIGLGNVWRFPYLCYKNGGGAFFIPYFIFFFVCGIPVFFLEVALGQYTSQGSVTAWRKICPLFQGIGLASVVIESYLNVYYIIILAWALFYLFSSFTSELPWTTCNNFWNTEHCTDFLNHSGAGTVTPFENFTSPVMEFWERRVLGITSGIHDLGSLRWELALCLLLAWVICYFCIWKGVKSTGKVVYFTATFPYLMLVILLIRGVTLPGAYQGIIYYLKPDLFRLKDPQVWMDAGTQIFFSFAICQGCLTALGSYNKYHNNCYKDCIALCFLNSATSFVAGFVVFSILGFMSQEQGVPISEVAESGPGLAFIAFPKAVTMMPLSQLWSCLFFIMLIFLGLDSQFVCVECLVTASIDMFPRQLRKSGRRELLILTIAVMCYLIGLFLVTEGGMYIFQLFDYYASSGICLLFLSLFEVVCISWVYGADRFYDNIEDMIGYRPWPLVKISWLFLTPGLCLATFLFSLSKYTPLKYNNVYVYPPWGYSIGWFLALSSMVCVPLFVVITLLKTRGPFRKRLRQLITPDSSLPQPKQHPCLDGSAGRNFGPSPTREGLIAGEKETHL

[7] = biological target: T4, Sodium- and chloride-dependent GABA transporter 3 (Homo sapiens) (UniProt P48066); assay: Inhibition of human GAT3 expressed in Flp-In CHO cells assessed as reduction in [3H]GABA uptake at 100 uM incubated for 3 mins by liquid scintillation counting method relative to control; type: cell-based
T4 sequence (whole entry): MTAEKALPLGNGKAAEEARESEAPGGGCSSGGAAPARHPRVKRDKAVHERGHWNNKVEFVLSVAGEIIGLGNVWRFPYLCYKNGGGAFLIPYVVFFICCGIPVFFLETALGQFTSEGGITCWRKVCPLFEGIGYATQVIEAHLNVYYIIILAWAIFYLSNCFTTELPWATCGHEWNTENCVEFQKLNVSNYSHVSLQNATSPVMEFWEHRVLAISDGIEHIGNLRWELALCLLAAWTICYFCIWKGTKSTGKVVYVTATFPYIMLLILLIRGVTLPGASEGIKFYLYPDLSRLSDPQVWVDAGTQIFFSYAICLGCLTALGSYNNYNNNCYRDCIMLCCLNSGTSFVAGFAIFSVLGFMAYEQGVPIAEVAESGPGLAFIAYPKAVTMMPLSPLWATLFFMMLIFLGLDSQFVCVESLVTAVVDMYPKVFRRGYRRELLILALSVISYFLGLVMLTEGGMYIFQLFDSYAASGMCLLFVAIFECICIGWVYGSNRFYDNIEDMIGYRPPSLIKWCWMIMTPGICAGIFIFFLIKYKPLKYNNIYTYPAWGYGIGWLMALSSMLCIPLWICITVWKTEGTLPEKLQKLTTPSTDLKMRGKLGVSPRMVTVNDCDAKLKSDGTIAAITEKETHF

Homo sapiens = organism: Homo sapiens; assay: Agonist activity at recombinant human GABA-A alpha3beta2gamma2S receptor transiently expressed in human tsA201 cells assessed as GABA-induced maximum response incubated for 30 mins and measured up to 90 secs by FMP dye based FLIPR membrane potential blue assay relative to GABA; type: cell-based
[8] = biological target: Sodium- and chloride-dependent GABA transporter 1 (Homo sapiens, UniProt P30531); assay: Inhibition of human GAT1 expressed in Flp-In CHO cells assessed as reduction in [3H]GABA uptake at 100 uM incubated for 3 mins by liquid scintillation counting method relative to control; type: cell-based
Sodium- and chloride-dependent GABA transporter 1, sequence (P30531 whole entry, looked up): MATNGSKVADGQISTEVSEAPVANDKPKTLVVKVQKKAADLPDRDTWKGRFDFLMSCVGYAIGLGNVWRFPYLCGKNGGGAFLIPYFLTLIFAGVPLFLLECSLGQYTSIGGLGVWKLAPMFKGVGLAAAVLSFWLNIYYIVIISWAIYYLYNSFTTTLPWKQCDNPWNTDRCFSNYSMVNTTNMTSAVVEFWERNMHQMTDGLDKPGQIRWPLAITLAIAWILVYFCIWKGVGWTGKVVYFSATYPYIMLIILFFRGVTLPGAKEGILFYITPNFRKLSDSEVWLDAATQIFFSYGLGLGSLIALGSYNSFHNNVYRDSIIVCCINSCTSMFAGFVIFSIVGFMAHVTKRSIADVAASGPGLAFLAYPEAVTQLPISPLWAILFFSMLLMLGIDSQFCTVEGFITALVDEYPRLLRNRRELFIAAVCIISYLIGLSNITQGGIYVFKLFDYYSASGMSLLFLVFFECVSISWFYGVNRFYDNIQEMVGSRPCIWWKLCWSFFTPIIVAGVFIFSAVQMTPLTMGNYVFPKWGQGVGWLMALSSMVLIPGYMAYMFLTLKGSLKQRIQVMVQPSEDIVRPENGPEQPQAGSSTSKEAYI

[9] = biological target: Gamma-aminobutyric acid receptor subunit alpha-4/beta-2/gamma-2 (Homo sapiens, UniProt P18507+P47870+P48169); assay: Agonist activity at recombinant human GABA-A alpha4beta2gamma2S receptor transiently expressed in human tsA201 cells incubated for 30 mins and measured up to 90 secs by FMP dye based FLIPR membrane potential blue assay; type: cell-based; details: read-out: EC50
Gamma-aminobutyric acid receptor subunit alpha-4/beta-2/gamma-2 (Homo sapiens, UniProt P18507+P47870+P48169), sequence (P48169 whole entry, one chain of several): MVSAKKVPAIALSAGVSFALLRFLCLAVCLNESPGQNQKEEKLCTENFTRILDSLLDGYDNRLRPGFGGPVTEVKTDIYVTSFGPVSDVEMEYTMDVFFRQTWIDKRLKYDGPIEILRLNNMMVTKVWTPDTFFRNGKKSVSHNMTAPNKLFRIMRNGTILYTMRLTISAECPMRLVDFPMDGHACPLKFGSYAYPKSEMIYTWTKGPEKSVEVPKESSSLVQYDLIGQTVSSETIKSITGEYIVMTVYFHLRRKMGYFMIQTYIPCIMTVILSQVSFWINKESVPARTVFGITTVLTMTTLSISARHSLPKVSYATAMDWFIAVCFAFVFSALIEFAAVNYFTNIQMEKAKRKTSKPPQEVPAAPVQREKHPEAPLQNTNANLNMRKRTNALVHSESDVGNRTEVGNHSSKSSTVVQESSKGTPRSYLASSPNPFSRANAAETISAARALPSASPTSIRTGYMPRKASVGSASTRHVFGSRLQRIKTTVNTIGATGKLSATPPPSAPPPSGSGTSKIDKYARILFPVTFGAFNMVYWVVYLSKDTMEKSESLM

[10] = biological target: GABA-A receptor; anion channel; assay: Displacement of [3H]muscimol from GABA(A) receptor in Sprague-Dawley rat cortical synaptic membranes by liquid scintillation counting
cells = type: cell-based; details: Homo sapiens, tsA201, 0.5 h
[11] = biological target: T1, Gamma-aminobutyric acid receptor subunit rho-1; assay: Agonist activity at recombinant human GABA-A rho-1 receptor transiently expressed in human tsA201 cells incubated for 30 mins and measured up to 90 secs by FMP dye based FLIPR membrane potential blue assay; type: cell-based; details: read-out: EC50
[12] = biological target: T5, GABA-A receptor; alpha-1/beta-2/gamma-2 (Homo sapiens, UniProt P14867+P18507+P47870); assay: Agonist activity at recombinant human GABA-A alpha1beta2gamma2S receptor transiently expressed in human tsA201 cells incubated for 30 mins and measured up to 90 secs by FMP dye based FLIPR membrane potential blue assay; type: cell-based
T5 sequence (P14867 whole entry): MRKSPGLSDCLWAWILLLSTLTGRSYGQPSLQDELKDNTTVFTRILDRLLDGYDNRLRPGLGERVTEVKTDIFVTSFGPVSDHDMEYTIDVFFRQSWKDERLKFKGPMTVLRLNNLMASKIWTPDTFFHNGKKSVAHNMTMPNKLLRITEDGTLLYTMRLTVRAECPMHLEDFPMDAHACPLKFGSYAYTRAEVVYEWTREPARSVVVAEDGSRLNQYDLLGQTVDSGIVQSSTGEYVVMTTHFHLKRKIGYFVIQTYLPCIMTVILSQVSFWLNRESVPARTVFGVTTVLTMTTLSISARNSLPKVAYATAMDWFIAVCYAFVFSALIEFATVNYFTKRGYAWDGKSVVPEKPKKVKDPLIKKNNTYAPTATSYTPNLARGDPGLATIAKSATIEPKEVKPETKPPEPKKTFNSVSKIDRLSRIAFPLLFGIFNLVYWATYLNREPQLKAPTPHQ
T5 sequence (P47870 whole entry): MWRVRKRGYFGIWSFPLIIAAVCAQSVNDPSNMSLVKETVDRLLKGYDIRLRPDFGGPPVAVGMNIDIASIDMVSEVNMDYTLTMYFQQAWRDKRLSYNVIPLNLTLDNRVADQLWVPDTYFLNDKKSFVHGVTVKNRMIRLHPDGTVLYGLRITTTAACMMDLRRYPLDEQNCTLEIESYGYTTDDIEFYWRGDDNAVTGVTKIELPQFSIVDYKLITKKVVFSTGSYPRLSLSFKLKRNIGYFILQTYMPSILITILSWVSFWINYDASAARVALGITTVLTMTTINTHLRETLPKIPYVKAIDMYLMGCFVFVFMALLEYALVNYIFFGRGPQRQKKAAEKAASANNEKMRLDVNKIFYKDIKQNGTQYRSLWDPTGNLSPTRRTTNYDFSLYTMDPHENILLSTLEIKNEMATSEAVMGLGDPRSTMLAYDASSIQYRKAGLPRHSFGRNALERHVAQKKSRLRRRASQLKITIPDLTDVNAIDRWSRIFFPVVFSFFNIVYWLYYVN
T5 sequence (P18507 whole entry): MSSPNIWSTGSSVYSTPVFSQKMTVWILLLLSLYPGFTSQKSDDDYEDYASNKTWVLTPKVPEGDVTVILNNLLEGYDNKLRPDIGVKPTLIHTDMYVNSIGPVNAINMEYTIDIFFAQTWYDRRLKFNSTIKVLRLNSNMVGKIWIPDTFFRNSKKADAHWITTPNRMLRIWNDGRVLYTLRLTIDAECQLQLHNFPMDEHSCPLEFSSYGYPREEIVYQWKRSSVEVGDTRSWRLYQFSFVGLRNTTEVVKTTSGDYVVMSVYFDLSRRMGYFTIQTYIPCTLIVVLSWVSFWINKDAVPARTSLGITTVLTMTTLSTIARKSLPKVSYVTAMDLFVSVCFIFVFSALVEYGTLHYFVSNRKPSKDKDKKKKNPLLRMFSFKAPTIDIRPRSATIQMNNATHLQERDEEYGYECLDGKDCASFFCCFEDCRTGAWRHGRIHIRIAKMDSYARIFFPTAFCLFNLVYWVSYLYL

[13] = biological target: T6, Gamma-aminobutyric acid receptor subunit alpha-5/beta-2/gamma-2 (Homo sapiens, UniProt P18507+P31644+P47870); assay: Agonist activity at recombinant human GABA-A alpha5beta2gamma2S receptor transiently expressed in human tsA201 cells incubated for 30 mins and measured up to 90 secs by FMP dye based FLIPR membrane potential blue assay; type: cell-based
T6 sequence (P47870 whole entry): T5 sequence (P47870 whole entry)
T6 sequence (P18507 whole entry): T5 sequence (P18507 whole entry)
T6 sequence (P31644 whole entry): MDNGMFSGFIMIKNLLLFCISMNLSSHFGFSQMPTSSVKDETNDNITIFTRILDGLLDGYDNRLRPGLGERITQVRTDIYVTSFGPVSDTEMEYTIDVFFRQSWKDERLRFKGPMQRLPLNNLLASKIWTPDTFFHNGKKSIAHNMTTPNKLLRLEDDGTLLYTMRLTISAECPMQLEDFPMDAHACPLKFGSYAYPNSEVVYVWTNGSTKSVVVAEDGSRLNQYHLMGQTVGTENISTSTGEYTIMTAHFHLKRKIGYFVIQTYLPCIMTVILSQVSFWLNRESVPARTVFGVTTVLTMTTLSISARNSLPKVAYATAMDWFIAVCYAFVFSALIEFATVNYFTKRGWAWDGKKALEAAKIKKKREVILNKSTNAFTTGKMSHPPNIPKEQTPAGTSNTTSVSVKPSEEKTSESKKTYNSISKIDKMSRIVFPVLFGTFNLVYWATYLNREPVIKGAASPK

| Rmax [1] [%] | Rmax [2] [%] | Rmax [3] [%] | inhibition [4] [%] | Rmax [5] [%] | inhibition [6] [%] | inhibition [7] [%] | inhibition [8] [%] | EC50 [9] [nM] | Ki [10] [nM] | EC50 (cells; read-out: EC50) [nM] | EC50 (cells; read-out: pEC50 (converted)) [nM] | EC50 [11] [nM] | EC50 [12] [nM] | EC50 [13] [nM] | Structure (SMILES) | Rmax (Homo sapiens) [%] |
| --- | --- | --- | --- | --- | --- | --- | --- | --- | --- | --- | --- | --- | --- | --- | --- | --- |
| 97 | 63 | 69 | > 30 | 32 | > 30 | > 30 | > 30 |  |  |  |  |  |  |  | CC(C(=O)O)C1CSC(N)=N1 (stereo in doubt; l-10a) | 83 |
| 103 | 34 | 65 |  | 53 |  |  |  | 8600 | 360 | 2400 | 2340 | 3700 | 12000 | 560 | NC1=N[C@@H](CC(=O)O)CS1 | 102 |
